For data set [1], the target named is human CSNK1G3 (Homo sapiens (Human), UniProt Q9Y6M4). Description: CSNK1G3 assay (ADP-Glo). It counts as biochemical. The following applies: median, read-out: CSNK1G IC50 [mol/l] (median). The procedure:
CSNK1G3-inhibitory activity of compounds of the present invention in presence of 1 μM adenosine-tri-phosphate (ATP) was quantified employing the CSNK1G3 assay as described in the following paragraphs. In essence, the enzyme activity is measured by quantification of the adenosine-di-phosphate (ADP), which is generated as a co-product of the enzyme reaction, via the “ADP-Glo™ Kinase Assay” kit from the company Promega. This detection system works as follows: In a first step the ATP not consumed in the kinase reaction is quantitatively converted to CAMP employing an adenylate cyclase (“ADP-Glo-reagent”), then the adenylate cyclase is stopped and the ADP generated in the kinase reaction converted to ATP which generates in a luciferase-based reaction a glow-luminescence signal (“Kinase Detection Reagent”).
Recombinant fusion protein of N-terminal Glutathion-S-Transferase (GST) and full-length human CSNK1G3, expressed by baculovirus infected insect cells and purified via Glutathion affinity chromatography, was purchased from Life Technologies (product no. PV3838) and used as enzyme. As substrate for the kinase reaction the biotinylated peptide biotin-Ahx-KRRRAL-pS-VASLPGL (C-terminus in amide form) was used which can be purchased e.g. from the company Biosyntan (Berlin-Buch, Germany).
For the assay 50 nl of a 100 fold concentrated solution of the test compound in DMSO was pipetted into a white 1536-well microtiter plate (Greiner Bio-One, Frickenhausen, Germany), 2 μL of a solution of CSNK1G3 in aqueous assay buffer [50 mM HEPES pH 7.5, 10% (v/v) glycerol, 10 mM MgCl2, 50 mM NaCl, 1 mM dithiothreitol, 0.01% (w/v) bovine serum albumin, 0.01% (v/v) Triton X-100] were added and the mixture was incubated for 15 min at 22° C. to allow pre-binding of the test compounds to the enzyme before the start of the kinase reaction. Then the kinase reaction was started by the addition of 3 μL of a solution of ATP ([…]=>final conc. in the 5 μL assay volume is 1 M) and peptide substrate (50 μM=>final conc. in the 5 μL assay volume is 30 μM) in assay buffer and the resulting mixture was incubated for a reaction time of 30 min at 22° C. The concentration of CSNK1G3 was adjusted depending of the activity of the enzyme lot and was chosen appropriate to have the assay in the linear range, a typical concentration is about 0.06 ng/μL. The reaction was stopped by the addition of 2.5 μL of “ADP-Glo-reagent” (1:1.5 fold diluted with water) and the resulting mixture was incubated at 22° C. for 1 h to convert the ATP not consumed in the kinase reaction completely to CAMP. Subsequently 2.5 μL of the “kinase detection reagent” (1.2 fold more concentrated than recommended by the producer) were added, the resulting mixture was incubated at 22° C. for 1 h and then the luminescence measured with a suitable measurement instrument (e.g. Viewlux™ from Perkin-Elmer). The amount of emitted light was taken as a measure for the amount of ADP generated and thereby for the activity of the CSNK1G3.
(§1) The data were normalised (enzyme reaction without inhibitor=0% inhibition, all other assay components but no enzyme=100% inhibition).

Data set [2] in a line: Solubility assay (thermodynamic solubility). It counts as physicochemical. To be noted: thermodynamic from solid, aqueous buffer, mean. As to the method:
Solubility of solid compound in aqueous buffer was determined by an equilibrium shake flask method. A saturated solution of drug in solvent (˜2 mg/ml solvent) was prepared and the solution was mixed for 24 h to ensure that equilibrium has been reached. The solution was centrifuged to remove the insoluble fraction and the concentration of the compound in solution was determined by HPLC-UV using a standard calibration curve (Kerns, E. H. et al., Solubility Methods in: Drug-like Properties: Concepts, Structure Design and Methods, p 276-286. Burlington, MA: Academic Press 2008).

Data set [3] addresses human CSNK1A1 (Homo sapiens (Human), UniProt P48729). Description: CSNK1A1 high ATP assay (ADP-Glo, 1 mM ATP). It counts as biochemical. To be noted: median, read-out: CSNK1A1 High ATP assay IC50 [mol/l] (median). The procedure: CSNK1A1-inhibitory activity of compounds of the present invention in presence of 1 mM adenosine-tri-phosphate (ATP) was quantified employing the CSNK1A1-high-ATP-assay as described in the following paragraphs. In essence, the enzyme activity is measured by quantification of the adenosine-di-phosphate (ADP), which is generated as a co-product of the enzyme reaction, via the “ADP-Glo™ Kinase Assay” kit from the company Promega. This detection system works as follows: In a first step the ATP not consumed in the kinase reaction is quantitatively converted to CAMP employing an adenylate cyclase (“ADP-Glo-reagent”), then the adenylate cyclase is stopped and the ADP generated in the kinase reaction converted to ATP which generates in a luciferase-based reaction a glow-luminescence signal (“Kinase Detection Reagent”).
Recombinant fusion protein of N-terminal Glutathion-S-Transferase (GST) and full-length human CSNK1A1, expressed by baculovirus infected insect cells and purified via Glutathion affinity chromatography, was purchased from Life Technologies (product no. PV4174) and used as enzyme. As substrate for the kinase reaction the biotinylated peptide biotin-Ahx-KRRRAL-pS-VASLPGL (C-terminus in amide form) was used which can be purchased e.g. from the company Biosyntan (Berlin-Buch, Germany).
For the assay 50 nl of a 100 fold concentrated solution of the test compound in DMSO was pipetted into a white low volume 384-well microtiter plate (Greiner Bio-One, Frickenhausen, Germany), 2 μL of a solution of CSNK1A1 in aqueous assay buffer [50 mM HEPES pH 7.5, 10% (v/v) glycerol, 10 mM MgCl2, 50 mM NaCl, 1 mM dithiothreitol, 0.01% (w/v) bovine serum albumin, 0.01% (v/v) Triton X-100] were added and the mixture was incubated for 15 min at 22° C. to allow pre-binding of the test compounds to the enzyme before the start of the kinase reaction. Then the kinase reaction was started by the addition of 3 μL of a solution of ATP (1.67 mM=>final conc. in the 5 μL assay volume is 1 mM) and peptide substrate (167 μM=>final conc. in the 5 μL assay volume is 100 μM) in assay buffer and the resulting mixture was incubated for a reaction time of 30 min at 22° C. The concentration of CSNK1A1 was adjusted depending of the activity of the enzyme lot and was chosen appropriate to have the assay in the linear range, a typical concentration is about 0.4 ng/μL. The reaction was stopped by the addition of 2.5 μL of “ADP-Glo-reagent” (1:1.5 fold diluted with water) and the resulting mixture was incubated at 22° C. for 1 h to convert the ATP not consumed in the kinase reaction completely to CAMP. Subsequently 2.5 μL of the “kinase detection reagent” (1.2 fold more concentrated than recommended by the producer) were added, the resulting mixture was incubated at 22° C. for 1 h and then the luminescence measured with a suitable measurement instrument (e.g. Viewlux™ from Perkin-Elmer). The amount of emitted light was taken as a measure for the amount of ADP generated and thereby for the activity of the CSNK1A1.
as §1
In general terms: In ADP-Glo the light output rises with the ADP produced.

The mark [4] stands for this setting: read-out: Thermodynamic Solubility [mg/l] (mean).
The mark [5] stands for this setting: read-out: Thermodynamic Solubility [μmol/L] (mean).

Like-named read-outs stand apart in the source and are kept apart here. Bounds are passed on as bounds.

Chain of human CSNK1G3 (Q9Y6M4 whole entry): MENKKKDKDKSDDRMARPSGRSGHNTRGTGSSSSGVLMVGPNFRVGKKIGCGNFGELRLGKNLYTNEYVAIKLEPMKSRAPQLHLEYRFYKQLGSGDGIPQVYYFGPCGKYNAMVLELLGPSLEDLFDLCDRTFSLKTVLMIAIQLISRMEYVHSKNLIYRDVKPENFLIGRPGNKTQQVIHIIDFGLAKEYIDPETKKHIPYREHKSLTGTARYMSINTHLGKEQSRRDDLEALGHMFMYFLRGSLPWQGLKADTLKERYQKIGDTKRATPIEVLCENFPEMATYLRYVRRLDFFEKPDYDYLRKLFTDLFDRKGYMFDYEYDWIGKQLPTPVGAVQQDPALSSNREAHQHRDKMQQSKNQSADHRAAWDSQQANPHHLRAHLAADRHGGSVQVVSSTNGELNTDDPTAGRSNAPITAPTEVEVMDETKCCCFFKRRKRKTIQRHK
Chain of human CSNK1A1 (P48729 whole entry): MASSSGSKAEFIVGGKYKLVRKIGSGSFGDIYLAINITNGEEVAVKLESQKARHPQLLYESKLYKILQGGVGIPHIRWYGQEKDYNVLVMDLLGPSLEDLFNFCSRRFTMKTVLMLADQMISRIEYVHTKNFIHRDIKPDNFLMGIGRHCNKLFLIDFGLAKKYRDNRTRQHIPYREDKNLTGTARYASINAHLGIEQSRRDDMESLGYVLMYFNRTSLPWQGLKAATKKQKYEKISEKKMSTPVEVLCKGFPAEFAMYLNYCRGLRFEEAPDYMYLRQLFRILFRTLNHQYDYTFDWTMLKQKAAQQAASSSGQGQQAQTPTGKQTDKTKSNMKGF

As for `Cc1cc(CC(=O)Nc2cc(-c3[nH]c4cccnc4c3-c3ccccn3)ccn2)on1` [Example 13, 2-(3-methylisoxazol-5-yl)-N-[4-[3-(2-pyridyl)-^1H-pyrrolo[3,2-b]pyridin-2-yl]-2-pyridyl]acetamide], the IC50 amounted to 28.6 nM in data set [1] and 41.3 nM in data set [3]. Besides, the values for the solubility thermodynamic at 24 h in data set [2] (setting [4]) and in data set [2] (setting [5]) were 65.9 mg/L and 161 µmol/L, respectively.

As to `Cc1cc(CC(=O)Nc2cc(-c3[nH]c4cccnc4c3-c3ccccn3)ccn2)n(C)n1` [Example 14], the IC50 in data set [1] came out at 35.4 nM; in data set [3], 30.6 nM. Further, the solubility thermodynamic at 24 h in data set [2] (setting [4]) amounted to 4.6 mg/L; in data set [2] (setting [5]), 10.9 µmol/L.

Consider `O=C(Cc1cc2ccccn2n1)Nc1cc(-c2[nH]c3cccnc3c2-c2ccccn2)ccn1` [Example 15, 2-pyrazolo[1,5-a]pyridin-2-yl-N-[4-[3-(2-pyridyl)-^1H-pyrrolo[3,2-b]pyridin-2-yl]-2-pyridyl]acetamide], for which the IC50 in data set [1] worked out at 10.3 nM; in data set [3], 24.2 nM. The solubility thermodynamic at 24 h is 0.8 mg/L in data set [2] (setting [4]) and 1.8 µmol/L in data set [2] (setting [5]).

Consider `Cc1cc(CC(=O)Nc2cc(-c3[nH]c4cccnc4c3-c3ccccn3)ccn2)nn1C` [Example 16, 2-(1,5-dimethylpyrazol-3-yl)-N-[4-[3-(2-pyridyl)-^1H-pyrrolo[3,2-b]pyridin-2-yl]-2-pyridyl]acetamide], for which the IC50 in data set [1] is 31.7 nM; in data set [3] it was 70.8 nM. Further, the solubility thermodynamic at 24 h in data set [2] (setting [4]) turned out to be 2.5 mg/L; in data set [2] (setting [5]), 5.9 µmol/L.

Take `Cc1nn(C)c(C)c1CC(=O)Nc1cc(-c2[nH]c3cccnc3c2-c2ccccn2)ccn1` [Example 17, N-[4-[3-(2-pyridyl)-^1H-pyrrolo[3,2-b]pyridin-2-yl]-2-pyridyl]-2-(1,3,5-trimethylpyrazol-4-yl)acetamide]: the IC50 in data set [1] was determined as 68.2 nM; in data set [3] it was 124 nM. Also, the solubility thermodynamic at 24 h in data set [2] (setting [4]) is 14.9 mg/L; in data set [2] (setting [5]) it was 34.1 µmol/L.

As for `Cc1nc(C)c(CC(=O)Nc2cc(-c3[nH]c4cccnc4c3-c3ccccn3)ccn2)s1` [Example 18, 2-(2,4-dimethylthiazol-5-yl)-N-[4-[3-(2-pyridyl)-^1H-pyrrolo[3,2-b]pyridin-2-yl]-2-pyridyl]acetamide], the values for the IC50 in data set [1] and in data set [3] were 15.4 nM and 14.1 nM, respectively. Also, the solubility thermodynamic at 24 h in data set [2] (setting [4]) came out at 5.4 mg/L; in data set [2] (setting [5]) it was 12.3 µmol/L.

As to `Cn1cc(C(CC(F)F)C(=O)Nc2cc(-c3[nH]c4cccnc4c3-c3ccccn3)ccn2)cn1` (stereo not shown) [Example 19, 4,4-difluoro-2-(1-methylpyrazol-4-yl)-N-[4-[3-(2-pyridyl)-^1H-pyrrolo[3,2-b]pyridin-2-yl]-2-pyridyl]butanamide], the IC50 came to 62.7 nM in data set [1] and 291 nM in data set [3]. For the same compound, the results for the solubility thermodynamic at 24 h in data set [2] (setting [4]) and in data set [2] (setting [5]) were 84 mg/L and 177 µmol/L, respectively.

As to `O=C(Cc1ccn(CC(F)(F)F)n1)Nc1cc(-c2[nH]c3cccnc3c2-c2ccccn2)ccn1` [Example 20, N-[4-[3-(2-pyridyl)-^1H-pyrrolo[3,2-b]pyridin-2-yl]-2-pyridyl]-2-[1-(2,2,2-trifluoroethyl)pyrazol-3-yl]acetamide], the values for the IC50 in data set [1] and in data set [3] were 14.8 nM and 98.7 nM, respectively. Besides, the solubility thermodynamic at 24 h worked out at 23.9 mg/L in data set [2] (setting [4]) and 50.1 µmol/L in data set [2] (setting [5]).

Consider `Cn1nc(CC(=O)Nc2cc(-c3[nH]c4cccnc4c3-c3ccccn3)ccn2)cc1C(F)(F)F` [Example 21, 2-[1-methyl-5-(trifluoromethyl)pyrazol-3-yl]-N-[4-[3-(2-pyridyl)-^1H-pyrrolo[3,2-b]pyridin-2-yl]-2-pyridyl]acetamide], for which the IC50 was 29.7 nM in data set [1] and 86.6 nM in data set [3]. Further, the solubility thermodynamic at 24 h in data set [2] (setting [4]) was less than 0.1 mg/L; in data set [2] (setting [5]), less than 0.21 µmol/L.

Regarding `O=C(Cc1ccns1)Nc1cc(-c2[nH]c3cccnc3c2-c2ccccn2)ccn1` [Example 22, 2-isothiazol-5-yl-N-[4-[3-(2-pyridyl)-^1H-pyrrolo[3,2-b]pyridin-2-yl]-2-pyridyl]acetamide], the results for the IC50 in data set [1] and in data set [3] were 27 nM and 41.2 nM, respectively. For the same compound, the solubility thermodynamic at 24 h in data set [2] (setting [4]) turned out to be 12.6 mg/L; in data set [2] (setting [5]), 30.6 µmol/L.

As for `O=C(Cc1ccno1)Nc1cc(-c2[nH]c3cccnc3c2-c2ccccn2)ccn1` [Example 23, 2-isoxazol-5-yl-N-[4-[3-(2-pyridyl)-^1H-pyrrolo[3,2-b]pyridin-2-yl]-2-pyridyl]acetamide], the IC50 in data set [1] was found to be 27.3 nM; in data set [3], 50.1 nM. For the same compound, the figures for the solubility thermodynamic at 24 h in data set [2] (setting [4]) and in data set [2] (setting [5]) were 59.5 mg/L and 150 µmol/L, respectively.

With `Cc1cc(CC(=O)Nc2cc(-c3[nH]c4cccnc4c3-c3ccccn3)ccn2)no1` [Example 26, 2-(5-methylisoxazol-3-yl)-N-[4-[3-(2-pyridyl)-^1H-pyrrolo[3,2-b]pyridin-2-yl]-2-pyridyl]acetamide], the results for the IC50 in data set [1] and in data set [3] were 26.5 nM and 90.8 nM, respectively. In addition, the values for the solubility thermodynamic at 24 h in data set [2] (setting [4]) and in data set [2] (setting [5]) were 6.1 mg/L and 14.9 µmol/L, respectively.

Take `O=C(Cc1cc(C2CC2)on1)Nc1cc(-c2[nH]c3cccnc3c2-c2ccccn2)ccn1` [Example 27, 2-(5-cyclopropylisoxazol-3-yl)-N-[4-[3-(2-pyridyl)-^1H-pyrrolo[3,2-b]pyridin-2-yl]-2-pyridyl]acetamide]: the figures for the IC50 in data set [1] and in data set [3] were 19.7 nM and 244 nM, respectively. In addition, the values for the solubility thermodynamic at 24 h in data set [2] (setting [4]) and in data set [2] (setting [5]) were less than 0.1 mg/L and less than 0.23 µmol/L, respectively.

The record behind these values is patent publication US20250188075A1, “SUBSTITUTED HETEROCYCLIC CSNK1 INHIBITORS” (The Broad Institute, Inc., priority 2022, published 2025).
